Experimental data published in patent US20230321189A1, “THERAPEUTIC AGENTS, PHARMACEUTICAL COMPOSITIONS, AND ASSOCIATED BIOMARKERS BASED ON TRK-B” (INSTITUTO DE MEDICINA MOLECULAR JOÃO LOBO ANTUNES, priority 2020, published 2023).

Experiments:
hippocampal slices = experiment: θ-burst Long-Term Potentiation (LTP) in acute hippocampal slices; type: cell-based, rat
From the text: Young adult (7-10 weeks old) male Wistar rats were sacrificed by decapitation under deep isoflurane anaesthesia. The brain was quickly removed, hemisected and both hippocampi were dissected free within ice-cold artificial cerebrospinal fluid (aCSF) (mM: NaCl 124; KCl 3; NaH2PO4 1.25; NaHCO326; MgSO4 1; CaCl2 2; and glucose 10), previously gassed with 95% O2 and 5% CO2, pH 7.4.
Slices (400 μm-thick) were cut perpendicularly to the long axis of the hippocampus with a McIlwain tissue chopper and allowed to recover for at least 60 min in a resting chamber, filled with the gassed aCSF, at room temperature (RT) (22-24° C.).
Hippocampal slices were incubated with vehicle or Aβ1-42 (200 nM) species (monomers, oligomers or fibrils) for 3 h at RT in gassed aCSF. We chose to perform slice incubation at RT, to avoid neuronal damage by hypoxic injury^27.
Slices were transferred to a submerging chamber (1 ml) and continuously superfused at a3 ml/min rate with gassed aCSF at 32° C. Perfusion tubes were coated with 0.1 mg/ml BSA prior to experiments to avoid adsorption of BDNF to the tubes^35. Evoked field excitatory postsynaptic potentials (fEPSP) were recorded extracellularly through a microelectrode filled with 4 M NaCl (2-8 MΩ resistance) placed in the stratum radiatum of the CA1 area, as previously described^34,35. One pathway of the Schaffer collateral/commissural fibers was stimulated (rectangular pulses of 0.1 ms duration) at every 15 s (for V/O curves, basal synaptic transmission and Paired-Pulse Facilitation (PPF) recordings) or every 20 s (for LTP recordings), by a bipolar concentric wire electrode placed on the Schaffer fibers in the stratum radiatum, in the CA1 area. The initial intensity of the stimulus was adjusted to obtain a submaximal fEPSP slope with a minimum population spike contamination, near one-fifth of the fEPSP slope obtained with supramaximal stimulation. The averages of eight consecutive fEPSPs were obtained and the slope of the initial phase of the potential was quantified. Recordings were obtained with an Axoclamp 2B amplifier (Axon Instruments, Foster City, CA), digitized and continuously stored on a personal computer with the LTP program 3. All the protocols detailed below were started only after a stable baseline of at least 20 minutes.
Long-Term Potentiation induction and saturation. A weak LTP-inducing θ-burst protocol consisting of four trains of 100 Hz, four stimuli, separated by 200 ms was used (4×4)^34,37. The intensity of the stimulus was never changed. LTP magnitude was quantified as the normalized change in the average slope of the fEPSP taken from 50 to 60 min after LTP induction in relation to the average slope of the fEPSP measured during the 10 min that preceded the induction of LTP.
For the experiments in FIG. 2, Brain-Derived Neurotrophic Factor (BDNF, 30 ng/ml) was added to the superfusing solution 20 min before the induction of LTP. Controls for these experiments were performed in different slices, without BDNF superfusion, on the same day. Generally, when testing BDNF effect on synaptic plasticity, two independent pathways of the same hippocampal slice are used, one serving as test and the other as internal control^35,38. However, because in the present experimental design slices were previously exposed to vehicle/Aβ for 3 h, we chose to test BDNF effect in different slices from the same rats. […]

hippocampal synaptosomes = experiment: [3H]glutamate release from hippocampal synaptosomes; type: cell-based, rat; details: BDNF 30 ng/ml
Description: Isolation of Synaptosomes. The synaptosomal fraction from rat hippocampi was prepared as routinely in the lab^3. Hippocampal slices (male Wistar rats, 7-10 weeks old) were prepared and treated with vehicle or Aβ1-42, as described above. Then, slices were added to 5 ml of ice-cold isosmotic sucrose solution (0.32 M, containing 1 mM EDTA, 1 mg/ml BSA, 10 mM HEPES, pH 7.4), and homogenized in a Potter-Elvehjem homogenizer with a Teflon piston (four up-and-down strokes) and the volume completed to 10 ml with the sucrose solution. After a first centrifugation at 3,000 g for 10 min (Heraeus sepatech—Biofuge 28RS centrifuge with 3746 rotor), the supernatant was collected and centrifuged at 14,000 g for 12 min. The whole procedure was conducted at 4° C. The pellet was resuspended in 1 ml 45% Percoll in KHR solution consisting of (in mM) NaCl 140, EDTA 1, HEPES 10, KCl 5, and glucose 5, and centrifuged at 16,000 g for 2 min. The synaptosomal fraction corresponds to the top buoyant layer and was collected from the tube. Percoll was removed by two washes with 1 ml KHR solution centrifuged at 16,000 g for 2 min each; synaptosomes were then kept on ice and used within 3 hours. The synaptosomal protein concentration was assayed using the Bio-Rad DC™ protein assay and BSA as standard.
[^3H]Glutamate Release from Hippocampal Synaptosomes. [3H]Glutamate release from hippocampal synaptosomes was performed as routinely in the lab^39. […]
Calculation of drug effects on glutamate release. At the end of each experiment, aliquots (500 μl) of each sample as well as the filters from each superfusion chamber were analyzed by liquid scintillation counting. The fractional release was expressed as the percentage of total radioactivity present in the synaptosomes at each time point. The amount of radioactivity released by each pulse of K^+ (S1 and S2) was calculated by integration of the area of the peak upon subtraction of the estimated basal tritium release. […]

| Substance | LTP magnitude, control conditions (hippocampal slices; BDNF 30 ng/ml) | BDNF effect on LTP after Aβ1-42 monomeric or fibrillar species (hippocampal slices; BDNF 30 ng/ml, Aβ 200 nM monomers or fibrils, P<0.05) | BDNF effect on LTP after Aβ1-42 oligomeric species (hippocampal slices; BDNF 30 ng/ml, Aβ 200 nM oligomers, P>0.05) | effect of exogenous BDNF on LTP in slices exposed to TAT-TrkB and Aβ oligomers (hippocampal slices; BDNF 30 ng/ml, TAT-TrkB 20 μM, Aβ 200 nM, P>0.05) | BDNF effect on glutamate release after Aβ1-42 monomeric or fibrillar species (hippocampal synaptosomes; Aβ 200 nM monomers or fibrils, P<0.05) | BDNF effect on glutamate release after Aβ1-42 oligomeric species (hippocampal synaptosomes; Aβ 200 nM oligomers, P>0.05) | glutamate release, control conditions (hippocampal synaptosomes; P<0.01) | effect on LTP in slices exposed to Aβ oligomers and TAT-TrkB (hippocampal slices; TrkB-Fc 2 μg/ml superfused from 30 min before LTP induction, TAT-TrkB 20 μM, P<0.05) |
| --- | --- | --- | --- | --- | --- | --- | --- | --- |
| BDNF: Brain-derived Neurotrophic Factor, supplied by Regeneron Pharmaceuticals | boosted | preserved | impaired | did not boost LTP further | preserved | impaired | boosted | – |
| TrkB-Fc: recombinant human TrkB/Fc chimera, BDNF's scavenger [reference compound] | – | – | – | – | – | – | – | counteracts the effect of TAT-TrkB on LTP reestablishment |
